# Laboratory results as given in patent publication US9682931B2, “Aryloyl(oxy or amino)pentafluorosulfanylbenzene compound, pharmaceutically acceptable salt thereof, and prodrugs thereof” (UBE INDUSTRIES, LTD., priority 2013, dated 2017).
# How the values were obtained:
# [1] = system: TNF-α mRNA expression in RBL-2H3 cells; experiment: Validation test in RBL-2H3 cell: TNF-α mRNA expression by antigen stimulation (Real-time PCR); assay type: cell-based, Rat; conditions: for TNF-α mRNA expression level: untreated control as 100
# Experimental: 2. Validation Test in RBL-2H3 Cell
# (Effect on Inflammation Mediator mRNA Expression by Antigen Stimulation)
# After a cell model for an allergic reaction, RBL-2H3 cells, were stimulated by an antigen, mRNA expression level of a typical inflammation mediator, TNF-α, in the cell was measured by a Real-time PCR method. In this manner, a confirmation test for anti-inflammatory effect of Compound 3 was performed.
# A test substance (Compound 3) (50 mg) was dissolved by adding 50 vol % ethanol (1 mL) to this to obtain an ethanol solution having a concentration of 50 mg/mL. The resultant solution was diluted with a medium. […] As a control (for comparison), Wortmannin (10 μM) was used. Herein, the concentrations were all indicated as the concentrations in cell supernatants.
# RBL-2H3 cells were sensitized with anti-DNP-IgE antibody for 2 hours. A medium or a test solution was added and heat was applied at 37° C. for 10 minutes and then, a DNP-HSA solution was added. A reaction was carried out at 37° C. for 30 minutes. After completion of the reaction, total RNA was extracted from a cell fraction and cDNA was synthesized by use of Random Primer and Reverse Transcriptase. After a specific primer for a desired gene (ITNF-α,β-actin) was added, a Real-time PCR method was carried out in accordance with SYBR Green method using the resultant cDNA as a template to determine the expression level of mRNA. The expression ratio of the desired gene relative to a housekeeping gene, β-actin, was calculated. In this manner, a change in expression level relative to an untreated control was calculated.
# Main test conditions and outline of the operation will be described below.
# Cell: Rat basophil leukemic cell, RBL-2H3 [Human Sciences Foundation]
# Antigen stimulation: Anti-DNP-IgE antibody, DNP labeled albumin
# [Sigma-Aldrich Corporation]
# Desired genes: IL-4, MCP-1, TNF-α, β-actin (housekeeping gene)
# Measurement apparatus: StepOnePlus Real-Time PCR System [Life
# Technologies Corporation] Measurement conditions: 95° C. (20 sec)→{95° C. (3 sec)→60° C. (30 sec)}×40 cycles
# mRNA expression level (%) was obtained based on the expression level of the untreated control as 100.
# [2] = system: caspase 3/7 in A549 cells (human lung cancer, adenocarcinoma); experiment: Test of inducing apoptosis of A549 cells (caspase 3/7 activity); assay type: cell-based; conditions: 5 hours
# Experimental: (Test of Inducing Apoptosis of A549 Cells (Human Lung Cancer, Adenocarcinoma))
# To evaluate apoptosis induction of a sample (Compound 3), the activity of caspase 3/7 was measured.
# 1. Measurement Reagents, Equipment and Instruments
# APO-ONE Homogeneous Caspase-3/7 Assay (G7790, Lot No. 314408; Promega)
# Fluorescence plate reader (SpectraMax GEMINI EM; Molecular Devices)
# Cells: A549 cells (obtained from the Research Resource Bank of the Human Sciences Foundation)
# Medium: 10% FBS and 0.1 mmol/L Non-Essential Amino Acids Solution-containing MEM medium
# A 1 mmol/L solution prepared with DMSO was prepared with a medium so as to have a final concentration (the final concentration of DMSO was set to be 0.1%).
# A sample was weighed and a medium was added so as to obtain 500 μg/mL. While warming at 37° C., sonication was performed for 60 minutes to make dissolution. Filtration was performed by a 0.22 μm-filter. The 500 μg/mL solution was subjected to serial dilution in a common ratio of 10 with the medium to prepare 50, 5, 0.5, 0.05 and 0.005 μg/mL.
# (1) (The day before test)
# On a 96-well plate, A549 cells were seeded in a ratio of 10000 cells/100 μL/well. […]
# (4) Reaction was performed at room temperature while blocking light. Two hours later, fluorescence was measured (excitation wavelength: 499 nm, fluorescence wavelength: 521 nm)
# [3] = system: Trichophyton mentagrophytes NBRC5466 (trichophyton); experiment: Antifungal test, minimum inhibitory concentration (MIC), trichophyton; assay type: cell-based; conditions: NBRC5466, 168 h, 27±2° C., 7 days
# Experimental: Antimicrobial/Antifungal Test
# Measurement of the Minimum Inhibitory Concentration (MIC) of a Test Substance
# The minimum inhibitory concentration (MIC) of test substances (Compound 3, Compound 7) on a microorganism was measured.
# 1) Test Microbe (a) Staphylococcus aureus MRSAIID 1677 (methicillin-resistant staphylococcus aureus; MRSA) (b) Trichophyton mentagrophytes NBRC5466 (trichophyton)
# 2) Preparation of Microbe Solution for Inoculation
# Test microbe (b): A strain cryopreserved was applied on PDA medium and cultured at 27±2° C. for 7 days. Spores were scraped out and suspended in a test microbe preparation solution, filtered with absorbent cotton. The solution was prepared so as to have a number of spores of about 10^6 CFU/mL. The test microbe solution prepared was serially diluted by 10-fold and cultured at 27±2° C. for 7 days and then the microbe cells were counted.
# 3) Serial Dilution of Test Substance
# Two-fold serial dilutions of a test substance were prepared in the following procedure. To a test substance (1 mg), a medium (5 mL) for measuring the sensitivity of each microbe strains was added to obtain a stock solution of 200 μg/mL. […]
# A test microbe solution (5 μL) was added dropwise to individual wells of the microplate. […] After culture, whether the microbe proliferated or not was determined by the naked eye. […]
SMILES,"suppression of TNF-α mRNA expression ([1]; RBL-2H3 cells, antigen stimulation)",TNF-α mRNA expression level ([1]; sample 1 μg/mL) [%],TNF-α mRNA expression level ([1]; sample 10 μg/mL) [%],caspase 3/7 activity ([2]; 0.005 μg/mL to 5 μg/mL),caspase 3/7 activity ([2]; all concentrations 0.005 μg/mL to 500 μg/mL),MIC [3] [mg/L]
"O=C(Nc1ccc(S(F)(F)(F)(F)F)cc1)c1cc(O)c(O)c(O)c1 [Compound 3, 4-(3,4,5-trihydroxybenzoylamino)pentafluorosulfanylbenzene]","Suppression of the mRNA expression TNF-α, one of inflammatory mediators, was confirmed",87,69,high activity was observed,tends to enhance caspase 3/7 activity,
"O=C(Oc1ccc(S(F)(F)(F)(F)F)cc1)c1cc(O)c(O)c(O)c1 [Compound 7, 4-(3,4,5-trihydroxybenzoyloxy)pentafluorosulfanylbenzene]",,,,,,6.3
